Laboratory results as given in patent US20100249238A1, “PHARMACEUTICAL COMPOSITIONS COMPRISING SEMICARBAZONES AND THIOSEMICARBAZONES AND METHOD FOR TREATING INFLAMMATORY, PAINFUL AND FEBRILE CONDITIONS AND PREVENTING SIGNS AND SYMPTOMS OF INFLAMMATION” (priority 2007, published 2010).
Where two headings read alike, the source gives them in different places. Marks after values point to notes of the source that are not given here.

Assays:
[1] = tested on: thermal allodynia induced by carrageenan; experiment: thermal allodynia induced by carrageenan in rats (Hargreaves apparatus); format: in vivo; conditions: 50 mg/kg i.p. -30 min, 100 or 200 mg/kg oral -60 min
Experimental: (§1) In the model of thermal allodynia, the latency for paw removal after application of a thermal stimulus is assessed in the Hargreaves apparatus (model 7370, Ugo Basile, Italy). In the model of mechanical allodynia, the frequency of paw withdrawal to a series of ten touches with a nylon filament to the plantar surface of the right hind paw is determined. Dimethyl sulfoxide (DMSO) 25%+Tween 80 10% in saline was the vehicle used for intraperitoneal administration and carboxymethylcellulose 0.5%, a pharmaceutically acceptable excipient, was used for oral administration. Thirty or 60 min after intraperitoneal or oral administration, respectively, carrageenan (1%, 50 μl, suspended in saline) was injected into the plantar surface of the right hindpaw and the latency for paw removal after application of a thermal stimulus or the frequency of paw withdrawal to the mechanical stimulus was evaluated as described.

[2] = tested on: motor activity; experiment: motor activity of mice in a rotarod; format: in vivo; conditions: Swiss male mice; 10, 25 or 50 mg/kg intraperitoneal (30 min) or 100 or 200 mg/kg oral (60 min)
Experimental: The effect of BS on motor activity of Swiss male mice (20-30 g) was evaluated in order to investigate whether inhibition of nociceptive behavior in animals treated with BS would be a result of a central depressive effect. Their motor activity was evaluated in a rotarod. A day before the experiment, the mice were trained in the apparatus. During the experiment, they were put in a rotarod (14 rpm) and the time they stayed in the apparatus was determined. One minute was the cut-off time. After basal measurements, the animals were treated with BS (10, 25 or 50 mg/kg, intraperitoneal or 100 or 200 mg/kg, oral). Dimethyl sulfoxide (DMSO) 25%+Tween 80 10% in saline was the vehicle used for intraperitoneal administration and carboxymethylcellulose 0.5%, a pharmaceutically acceptable excipient, was used for oral administration. Thirty or 60 min after intraperitoneal or oral administration, respectively, the animals were evaluated again in the rotarod apparatus.

[3] = tested on: mechanical allodynia induced by carrageenan; experiment: mechanical allodynia induced by carrageenan in rats (nylon filament); format: in vivo; conditions: 50 mg/kg i.p. -30 min, 100 or 200 mg/kg oral -60 min
Experimental: as §1

[4] = tested on: cell migration induced by carrageenan; experiment: cell migration induced by intraperitoneal injection of carrageenan in rats; format: in vivo; conditions: 200 mg/kg oral -60 min
Experimental: In this model, carrageenan (500 μg, 1 ml, suspended in saline) is injected into the peritoneal cavity of rats. After three hours, the animals are euthanized and 10 ml phosphate buffer are injected into the peritoneal cavity. The peritoneal lavage is removed and the centrifuged. The supernatant is removed and the pellet is suspended in a 2 ml of phosphate buffer. An aliquot of 20 μl is added to a 400 μl Turk's solution. The number of cells is determined by microscopy.
Carboxymethylcellulose 0.5%, a pharmaceutically acceptable excipient, was used for oral administration. BS (200 mg/kg, oral, −60 min) inhibited cell migration induced by carrageenan.

[5] = tested on: nociceptive response induced by formaldehyde; experiment: nociceptive response induced by formaldehyde in mice; format: in vivo
Experimental: In the nociceptive response induced by formaldehyde (0.92%, 20 μL), the inflammatory stimulus is injected subcutaneously into the dorsum of the right hind paw of male Swiss mice. The time the animal spent licking its injected paw was determined from 0 to 5 min (first phase) and from 15 to 30 min (second phase) after formaldehyde injection. Dimethyl sulfoxide (DMSO) 25%+Tween 80 10% in saline was the vehicle used for intraperitoneal administration and carboxymethylcellulose 0.5%, a pharmaceutically acceptable excipient, was used for oral administration. Thirty or 60 min after intraperitoneal or oral administration, respectively, formaldehyde was injected and the nociceptive behavior evaluated as described.

[6] = tested on: paw edema induced by carrageenan; experiment: paw edema induced by carrageenan in rats; format: in vivo; conditions: 50 mg/kg i.p. -30 min or 200 mg/kg oral -60 min
Experimental: The paw edema was assessed using a pletismometer (model 7140, Ugo Basile, Italy). The basal paw volume was determined before any treatment and the edema was induced by intraplantar injection of carrageenan into the right hindpaw (1%, 50 μl, suspended in saline). Dimethyl sulfoxide (DMSO) 25%+Tween 80 10% in saline was the vehicle used for intraperitoneal administration and carboxymethylcellulose 0.5%, a pharmaceutically acceptable excipient, was used for oral administration. Thirty or 60 min after intraperitoneal or oral administration, respectively, carrageenan (1%, 50 μl, suspended in saline) was injected and the paw edema was evaluated as described.

[7] = tested on: rats; experiment: oral acute toxicity, OECD 420 fixed-dose procedure; format: in vivo
Experimental: (§2) Toxicological studies were based on established protocols (OECD Test Guidelines) internationally recognized as a reference standard tool for chemical tests.
Only one dose of substances (300 mg/kg or 2000 mg/kg) was administered orally in rats. A careful observation of the rats was made 30 minutes later and repeated hourly up to 12 h. […] After that, the animals were euthanised and submitted to macroscopic and microscopic necropsy.
(§3) Laboratory analyses for acute (macroscopic and microscopic analyses) and subacute (macroscopic and microscopic analyses, biochemical and hematologic analysis) toxicity tests were carried out.

[8] = tested on: nociceptive response induced by heat; experiment: nociceptive response induced by heat in the hot plate model; format: in vivo; conditions: mice; 54° C.; 10, 25 or 50 mg/kg i.p. -30 min; 100 or 200 mg/kg oral -60 min
Experimental: In this model, the mice were exposed to a heat metal surface (54° C.) and the latency for licking the paws or jumping off the plate was determined. Dimethyl sulfoxide (DMSO) 25%+Tween 80 10% in saline was the vehicle used for intraperitoneal administration and carboxymethylcellulose 0.5%, a pharmaceutically acceptable excipient, was used for oral administration. Thirty or 60 min after intraperitoneal or oral administration, respectively, the mice were exposed to the hot plate and the latency for displaying the nociceptive behavior was determined as described.

[9] = tested on: fibrovascular tissue formation induced by cotton; experiment: fibrovascular tissue formation induced by subcutaneous cotton implant; format: in vivo, mice; conditions: 200 mg/kg per day, per os, 7 days; cotton pellet
Experimental: In the model of fibrovascular tissue formation, a cotton pellet (10 mg) is subcutaneously implanted in the back of mice. After seven days, the mice are euthanized and the cotton pellet involved plus the surrounding fibrovascular tissue is removed and its mass determined. Carboxymethylcellulose 0.5%, a pharmaceutically acceptable excipient, was used for oral administration. BS (200 mg/kg·day, oral) was administered during seven days. Twenty-four hours after the last administration, the animals were euthanised and the mass of the cotton pellet plus the surrounding fibrovascular tissue was determined as described.

[10] = tested on: febrile response induced by endotoxin of E. coli; experiment: febrile response induced by bacterial endotoxin in rats; format: in vivo; conditions: 200 mg/kg oral -60 min
Experimental: In this model, endotoxin of E. coli (50 μg/kg) is injected intravenously in rats and the colonic temperature is determined during 6 h.
Carboxymethylcellulose 0.5%, a pharmaceutically acceptable excipient, was used for oral administration. BS (200 mg/kg, oral, −60 min) inhibited the febrile response induced by endotoxin.

[11] = oral subacute toxicity, OECD 407 repeated dose 28 days, body weight; format: in vivo, rats; conditions: for Final body mass / Initial body mass: BS, mean ± sem
Experimental: as §2
The OECD 407 guideline—Repeated-dose Procedure for Assessing Oral Subacute Toxicity (OECD, 1995) was used. The test substance was administered orally daily (from 11:00 am to 1:00 pm) during 28 days. The animals were observed daily during the whole period. Doses of 100, 300, 500 mg/kg for BS were used.
as §3

[12] = tested on: nociceptive response induced by formaldehyde; conditions: compared with first phase; Blackburn-Munro et al., Eur. J. Pharmacol. 445, 231, 2002; cited from earlier work
[13] = females, Satellite group, n = 5

Compound: NC(=O)NN=Cc1ccccc1 [BS, benzaldehyde semicarbazone]
- thermal allodynia induced by carrageenan [1]: inhibited
- motor activity (time stayed in the rotarod) [2]: did not alter the motor activity
- mechanical allodynia induced by carrageenan [3]: inhibited
- cell migration induced by carrageenan [4]: inhibited
- first phase of the nociceptive response induced by formaldehyde ([5]; 50 mg/kg intraperitoneal, only this dose, 0 to 5 min): inhibited
- second phase of the nociceptive response induced by formaldehyde ([5]; 10, 25 or 50 mg/kg i.p. or 100 or 200 mg/kg oral, 15 to 30 min): markedly inhibited
- paw edema induced by carrageenan [6]: inhibited
- Observed signs: general activity score (normal 4) ([7]; 300 mg/kg, 30' - 9 h): General activity (3),
- Observed signs: grooming score (normal 0) ([7]; 300 mg/kg, 30' - 9 h): grooming (1)
- Observed signs ([7]; 300 mg/kg, 9 h - 14th day): No toxicity signs
- Observed signs: ataxia score (normal 0) ([7]; 2000 mg/kg, 30' - 12 h): 4
- Observed signs: cage corner score (normal 0) ([7]; 2000 mg/kg, 30' - 12 h): 1
- Observed signs: piloerection score (normal 0) ([7]; 2000 mg/kg, 30' - 12 h): piloerection (1),
- Observed signs: prostration score (normal 0) ([7]; 2000 mg/kg, 30' - 12 h): prostration (3)
- Observed signs ([7]; 2000 mg/kg, from the 2nd day): No toxicity signs
- category in the Globally Harmonized System for the Classification and Labeling of Chemicals ([7]; from a death at the highest dose (2.000 mg/kg) in the acute toxicity test): 5
- signs in the acute toxicity test ([7]; rats, 300 mg/kg oral single dose, reversible after few hours): reduction of motor activity and grooming
- reversibility of signs of toxicity ([7]; rats, 2000 mg/kg oral single dose): second day
- T/M = number of rats treated/number of deaths ([7]; single oral dose 300 mg/kg): 5/0
- T/M = number of rats treated/number of deaths ([7]; single oral dose 2000 mg/kg): 5/1*
- antinociceptive effect in the hot plate model [8]: did not induce an antinociceptive effect
- fibrovascular tissue formation [9]: inhibited
- febrile response induced by endotoxin [10]: inhibited
- Final body mass [11, 13]: 197.27 ± 14.44^AB
- Initial body mass [11, 13]: 198.10 ± 15.06^A
- Final body mass ([11]; females, dose 100, 28 days, n = 5): 230.30 ± 15.42^A
- Initial body mass ([11]; females, dose 100, n = 5): 207.60 ± 12.62^A
- Final body mass ([11]; females, dose 300, 28 days, n = 5): 208.38 ± 24.28^AB
- Initial body mass ([11]; females, dose 300, n = 5): 192.30 ± 13.34^A
- Final body mass ([11]; females, dose 500, 28 days, n = 5): 170.00 ± 17.22^B
- Initial body mass ([11]; females, dose 500, n = 5): 196.60 ± 8.20^A
- Final body mass ([11]; males, Satellite group, death of an animal during treatment): 222.57 ± 29.34^B*
- Initial body mass ([11]; males, Satellite group, n = 5): 197.00 ± 4.51^A
- Final body mass ([11]; males, dose 100, 28 days, n = 5): 340.20 ± 50.91^A
- Initial body mass ([11]; males, dose 100, n = 5): 240.87 ± 20.07^A
- Final body mass ([11]; males, dose 300, 28 days, n = 5): 258.53 ± 25.76^B
- Initial body mass ([11]; males, dose 300, n = 5): 192.50 ± 8.32^A
- Final body mass ([11]; males, dose 500, 28 days, n = 5): 240.00 ± 46.65^B
- Initial body mass ([11]; males, dose 500, n = 5): 225.30 ± 34.72^A
- body weight gain ([11]; rats, higher doses, oral daily 28 days): reduced body weight gain

Compound: NC(=O)N1c2ccccc2C=Cc2ccccc21 [carbamazepine]
- second phase of the nociceptive response induced by formaldehyde [12]: inhibit more effectively the second phase

Compound: Nc1nnc(-c2cccc(Cl)c2Cl)c(N)n1 [lamotrigine]
- second phase of the nociceptive response induced by formaldehyde [12]: inhibit more effectively the second phase

Compound: O=C1NC(=O)C(c2ccccc2)(c2ccccc2)N1 [phenyloin]
- second phase of the nociceptive response induced by formaldehyde [12]: inhibit more effectively the second phase
